From patent US20140242012A1, “METHODS FOR TREATING UV-DAMAGED SKIN AND SCC TUMORS AND FOR REMOVING TATTOOS WITH TOPICAL INGENOL MEBUTATE” (LEO Laboratories Limited, priority 2011, published 2014)

Test system: anti-T7 antibodies
Assay: T7 ELISA of serum from cured mice
Format: in vivo, SKH1/hr mice
Description: Blood (˜50-100 μl) 1 s taken by tail bleeding the mice and is collected into 0.8 ml MiniCollect® Z Serum Separator tubes that are coated with spray-dried clot activator (Greiner bio-one Cat. Num. 450472) and are spun at 3000 rpm in a microfuge at room temperature for 10 min. The serum is collected and stored at 4° C. for analysis of anti-T7 antibodies by ELISA.
Preparation of T7 ELISA plates: T7 cells are grown to 90% confluence. The medium is aspirated and the cells are washed once with ice-cold PBS. T7 cells are harvested by scraping in PBS supplemented with protease inhibitor cocktail (PIC) and disrupted by sonication at 4° C. for 1-2 min. The T7 lys ate solution is supplemented with bicarbonate buffer (pH 9.6) containing PIC to a final volume of 40 ml and 70 μl/well is added to each well in a 96 well plate (Nunc, Invitro Technologies Cat. Num. 442404). The plates are dried overnight at 37° C.
The following day, the plates are blocked with 10% (w/v) skim milk in PBS for 1 h at room temperature. Meanwhile mouse serum is prepared by diluting 1:7 to 1:413343 in 3-fold dilutions in PBS/0.01% Tween20 (v/v)/1% (w/v) skim milk for the IgG2a plate and 1:10 10 […] in 3-fold dilutions for the IgG1 plate. […] Spectrophotometric readings are taken on an ELISA plate reader at 405 nm and graphs are generated using Graphpad Prism Version 5.01 software. […]

C/C=C(/C)C(=O)O[C@H]1C(C)=C[C@]23C(=O)[C@@H](C=C(CO)[C@@H](O)[C@]12O)[C@H]1[C@@H](C[C@H]3C)C1(C)C [ingenol mebutate] was tested, and the “IgG1 and IgG2a anti-T7 antibodies vs naïve mice” value (cured female mice bled 107 days post treatment, 0.25% topical) was “significantly more” and the anti-tumour antibodies (separate group, day 156 post treatment) was “barely detectable”.
